According to patent EP3061750A1, “PYRAZOLE AMIDE COMPOUND CONTAINING DIPHENYL ETHER, AND APPLICATION THEREOF, AND PESTICIDE COMPOSITION” (Central China Normal University, priority 2013, dated 2015):
Where two headings read alike, the source gives them in different places.

Assays:
[1] = test system: Cucumber powdery mildew (Sphaerotheca uliginea); test: pot in vivo assay of bactericidal activity, cucumber powdery mildew; settings: for pest or weed control at 200 µg/mL: Cucumis sativus, read-out: Efficacy(%) cucumber powery mildew
From the text: (§1) This test is used to determine the bactericidal activity of the compounds prepared in Example 1, Preparation Examples 1 and 2.
(§2) The targets used in the test example are rice sheath blight and cucumber powdery mildew.
(§3) Test Method: According to "Standard Practice for determination of pesticide biological activity (SOP)", pyrazole amide compound containing diphenyl ether was dispensed to 5% emulsifiable concentrates (hereinafter referred to as 5% EC), […] method (pot in vivo assay). The screening results on the two test targets of the compounds prepared in Example 1, Preparation Examples 1 and 2 were shown in Table 4.
Cucumber powdery mildew (Sphaerotheca uliginea)
A cucumber seedling with uniform growth in true leaf stage was chosen, and dried in shade for 24h after spray treatment. Fresh cucumber powdery mildew spores on the cucumber leaves were collected and washed, and filtered through a double gauze to prepare a spore suspension with concentration of about 100,000 / ml, then spray inoculation was applied. The test materials inoculated were moved into artificial climate with relative humidity of 60-70% and temperature of 21-23 °C (indoor lighting), after about 10 days, investigating and grading were carried out according to the incidence of the blank control, and the control effect was calculated according to the disease index.
(§4) Investigation method and grading standard adopted "Guidelines for the field efficacy trials of pesticides", and the control effect was calculated with the disease index. The disease index = Σ(number of diseased leaves at each grade×relative grade value) × 100/(total number of leaves×9); [formula] Control effect (%) = (disease index of control−disease index of treated) × 100/disease index of control. [formula]

[2] = test system: Rice sheath blight (Rhizoctonia solani); test: pot in vivo assay of bactericidal activity, rice sheath blight; settings: for pest or weed control at 200 µg/mL: Rhizoctonia solani, read-out: Efficacy(%) rice sheath blight
From the text: as §1, §2
as §3, with “EC), the” for “EC),”
Rice sheath blight (Rhizoctonia solani)
Two potted rice seedlings with uniform growth in true leaf stage were chosen, and dried by air after spray treatment. The side of bacteria cake with mycelium was closely attached on the leaves, after cultured at 22-26 °C under dark light in a moisture preserving manner for 24h, then cultured with natural light for about 4 days. The diameter of disease spot of each inoculating point was measured by using a caliper after the control material was fully attacked by disease, and the control effect was calculated.
as §4

[3] = target: T1, succinate dehydrogenase (Sus scrofa, UniProt A5GZW8+D0VWV4+Q007T0); test: inhibitory activity on succinate dehydrogenase (DCIP reduction at 600 nm); assay type: biochemical, pig
T1 construct: succinate dehydrogenase, which was isolated from pig hearts; from tissue; host or cells: pig heart
T1 sequence (Q007T0 29-280): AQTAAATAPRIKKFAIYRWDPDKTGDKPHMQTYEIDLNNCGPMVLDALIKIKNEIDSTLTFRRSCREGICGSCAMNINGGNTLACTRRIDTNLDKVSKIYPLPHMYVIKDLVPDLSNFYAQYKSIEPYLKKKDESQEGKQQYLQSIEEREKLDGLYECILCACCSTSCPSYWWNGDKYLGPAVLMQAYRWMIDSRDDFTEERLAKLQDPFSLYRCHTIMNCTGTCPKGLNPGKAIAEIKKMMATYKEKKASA
T1 sequence (D0VWV4 30-169): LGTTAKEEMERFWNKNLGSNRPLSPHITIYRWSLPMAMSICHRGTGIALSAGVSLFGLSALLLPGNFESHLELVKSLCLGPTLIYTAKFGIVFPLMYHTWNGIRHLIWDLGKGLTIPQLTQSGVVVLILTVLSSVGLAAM
T1 sequence (A5GZW8 57-159 limits assumed): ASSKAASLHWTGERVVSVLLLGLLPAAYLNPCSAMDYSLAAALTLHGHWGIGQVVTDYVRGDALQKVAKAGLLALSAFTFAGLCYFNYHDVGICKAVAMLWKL
T1 sequence (Q0QF01 43-664 partner): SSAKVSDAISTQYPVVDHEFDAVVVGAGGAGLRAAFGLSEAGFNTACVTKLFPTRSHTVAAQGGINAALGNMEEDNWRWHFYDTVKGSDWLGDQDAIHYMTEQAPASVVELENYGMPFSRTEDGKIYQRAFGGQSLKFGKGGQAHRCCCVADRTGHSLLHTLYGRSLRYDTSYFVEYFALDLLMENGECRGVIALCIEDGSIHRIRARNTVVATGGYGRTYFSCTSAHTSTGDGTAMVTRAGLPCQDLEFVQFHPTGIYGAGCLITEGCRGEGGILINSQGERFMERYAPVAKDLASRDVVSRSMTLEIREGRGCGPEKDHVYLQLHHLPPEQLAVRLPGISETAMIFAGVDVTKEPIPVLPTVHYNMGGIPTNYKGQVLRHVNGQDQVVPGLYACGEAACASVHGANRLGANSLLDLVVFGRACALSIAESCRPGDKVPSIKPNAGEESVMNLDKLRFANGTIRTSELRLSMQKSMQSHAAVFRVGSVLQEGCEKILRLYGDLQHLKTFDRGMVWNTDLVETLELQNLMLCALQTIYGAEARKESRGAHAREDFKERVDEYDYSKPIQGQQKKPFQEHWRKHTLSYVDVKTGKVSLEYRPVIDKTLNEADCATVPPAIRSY
Description: This test was used to determine the inhibitory activity on the succinate dehydrogenase of the compounds prepared in Example 1, Preparation Examples 1 and 2 .
The enzyme used in the test example was succinate dehydrogenase, which was isolated from pig hearts.
Test Method: total volume was 1.8ml, the system comprised 100mM Na2HPO4-NaH2PO4 buffer (pH7.4), 0.3mM EDTA, 20mM sodium succinate, 53µM DCIP (2,6-dichloro indophenol sodium), 2nM succinate dehydrogenase. In water bath with 23 °C of constant temperature and 600rpm magnetic stirring, the reduction of the light absorption of substrate DCIP was monitored at a wavelength of 600nm, the experimental points within the linear range were collected, that is, the experimental points in which the consumption of substrate was controlled not exceeding 5% were collected. The molar extinction coefficient of DCIP was 21mM^-1cm^-1. The reduction amount of DCIP during the reaction time was calculated and linear slope was fitted, and then the initial velocity of the reaction was obtained by deducting the baseline slope.

[4] = concentration 200 mg/L, 5% EC, pot

Cn1cc(C(=O)Nc2ccccc2Oc2ccccc2)c(C(F)(F)F)n1 [Comparative compound 12, reference compound]
pest or weed control at 200 µg/mL [1]: 0% | pest or weed control at 200 µg/mL [2]: 30.9% | IC50 [3]: 19.8 ± 1.07 µM | inhibition at 1 µM ([3]; read-out: inhibition ratio(%)): 0% | inhibition at 5 µM ([3]; read-out: inhibition ratio(%)): 10% | inhibition at 10 µM ([3]; read-out: inhibition ratio(%)): 22.3% | inhibition at 20 µM ([3]; read-out: inhibition ratio(%)): 38% | inhibition at 30 µM ([3]; read-out: inhibition ratio(%)): 50.3% | inhibition at 50 µM ([3]; read-out: inhibition ratio(%)): 61.8%

Cn1cc(C(=O)Nc2ccccc2Oc2ccc(C(C)(C)C)cc2)c(C(F)F)n1 [Comparative compound 21, reference compound]
pest or weed control at 200 µg/mL [1]: 0% | pest or weed control at 200 µg/mL [2]: 22.3% | IC50 [3]: 1.18 ± 0.0137 µM | inhibition at 0.1 µM ([3]; read-out: inhibition ratio(%)): 0% | inhibition at 0.2 µM ([3]; read-out: inhibition ratio(%)): 24.7% | inhibition at 0.3 µM ([3]; read-out: inhibition ratio(%)): 27.4% | inhibition at 0.5 µM ([3]; read-out: inhibition ratio(%)): 34.6% | inhibition at 1 µM ([3]; read-out: inhibition ratio(%)): 46.9% | inhibition at 3 µM ([3]; read-out: inhibition ratio(%)): 60.7% | inhibition at 10 µM ([3]; read-out: inhibition ratio(%)): 79.4% | inhibition at 50 µM ([3]; read-out: inhibition ratio(%)): 80.8%

Cn1cc(C(=O)Nc2ccccc2Oc2ccc(C(F)(F)F)cc2Cl)c(C(F)F)n1 [Compound II]
pest or weed control at 200 µg/mL [1, 4]: 100% | efficacy on cucumber powery mildew(%) ([1]; concentration 6.25 mg/L): 0% | efficacy on cucumber powery mildew(%) ([1]; concentration 12.5 mg/L): 66.67% | efficacy on cucumber powery mildew(%) ([1]; concentration 25 mg/L): 94.44% | efficacy on cucumber powery mildew(%) ([1]; concentration 50 mg/L): 100% | efficacy on cucumber powery mildew(%) ([1]; concentration 100 mg/L): 100% | pest or weed control at 200 µg/mL [2, 4]: 100% | efficacy on rice sheath bilght(%) ([2]; concentration 0.75 mg/L): 43.75% | efficacy on rice sheath bilght(%) ([2]; concentration 1.5 mg/L): 55.34% | efficacy on rice sheath bilght(%) ([2]; concentration 3.125 mg/L): 68.68% | efficacy on rice sheath bilght(%) ([2]; concentration 6.25 mg/L): 70.43% | efficacy on rice sheath bilght(%) ([2]; concentration 12.5 mg/L): 94.62% | efficacy on rice sheath bilght(%) ([2]; concentration 25 mg/L): 98.66% | efficacy on rice sheath bilght(%) ([2]; concentration 50 mg/L): 100% | efficacy on rice sheath bilght(%) ([2]; concentration 100 mg/L): 100% | IC50 [3]: 0.0484 ± 0.00171 µM | inhibition at 0.01 µM ([3]; concentration 0.01 µM, read-out: inhibition ratio(%)): 11.7% | inhibition at 0.02 µM ([3]; concentration 0.02 µM, read-out: inhibition ratio(%)): 20.8% | inhibition at 0.03 µM ([3]; concentration 0.03 µM, read-out: inhibition ratio(%)): 31.8% | inhibition at 0.05 µM ([3]; concentration 0.05 µM, read-out: inhibition ratio(%)): 47.1% | inhibition at 0.1 µM ([3]; concentration 0.1 µM, read-out: inhibition ratio(%)): 60.7% | inhibition at 0.2 µM ([3]; concentration 0.2 µM, read-out: inhibition ratio(%)): 75.3% | inhibition at 0.5 µM ([3]; concentration 0.5 µM, read-out: inhibition ratio(%)): 83.8% | inhibition at 1 µM ([3]; concentration 1 µM, read-out: inhibition ratio(%)): 91.4% | inhibition at 10 µM ([3]; concentration 10 µM, read-out: inhibition ratio(%)): 97.9% | inhibition at 50 µM ([3]; concentration 50 µM, read-out: inhibition ratio(%)): 100%

Cn1cc(C(=O)Nc2ccccc2Oc2ccc(Cl)cc2Cl)c(C(F)F)n1 [Compound I]
pest or weed control at 200 µg/mL [1]: 100% | efficacy on cucumber powery mildew(%) ([1]; concentration 100 mg/L): 0% | pest or weed control at 200 µg/mL [2]: 100% | efficacy on rice sheath bilght(%) ([2]; concentration 1 mg/L): 20.74% | efficacy on rice sheath bilght(%) ([2]; concentration 1.5 mg/L): 45.38% | efficacy on rice sheath bilght(%) ([2]; concentration 3.125 mg/L): 65.37% | efficacy on rice sheath bilght(%) ([2]; concentration 6.25 mg/L): 68.77% | efficacy on rice sheath bilght(%) ([2]; concentration 12.5 mg/L): 81.72% | efficacy on rice sheath bilght(%) ([2]; concentration 25 mg/L): 95% | efficacy on rice sheath bilght(%) ([2]; concentration 50 mg/L): 98% | efficacy on rice sheath bilght(%) ([2]; concentration 100 mg/L): 100% | IC50 [3]: 0.401 ± 0.0103 µM | inhibition at 0.03 µM ([3]; read-out: inhibition ratio(%)): 18.3% | inhibition at 0.05 µM ([3]; read-out: inhibition ratio(%)): 21.6% | inhibition at 0.1 µM ([3]; read-out: inhibition ratio(%)): 27% | inhibition at 0.2 µM ([3]; read-out: inhibition ratio(%)): 37.4% | inhibition at 0.3 µM ([3]; read-out: inhibition ratio(%)): 42.1% | inhibition at 0.5 µM ([3]; read-out: inhibition ratio(%)): 52.3% | inhibition at 1 µM ([3]; read-out: inhibition ratio(%)): 66.9% | inhibition at 10 µM ([3]; read-out: inhibition ratio(%)): 74.4% | inhibition at 50 µM ([3]; read-out: inhibition ratio(%)): 73%

Cn1cc(C(=O)Nc2ccccc2Oc2cccc(Cl)c2)c(C(F)(F)F)n1 [III-1]
pest or weed control at 200 µg/mL [1]: 22.2% | pest or weed control at 200 µg/mL [2]: 68.6% | IC50 [3]: 36.9 ± 1.47 µM

Cn1cc(C(=O)Nc2ccccc2Oc2ccc(Cl)cc2Cl)c(C(F)(F)F)n1 [III-2]
pest or weed control at 200 µg/mL [1]: 72.2% | pest or weed control at 200 µg/mL [2]: 0% | IC50 [3]: 2.7 ± 1.37 µM

Cn1cc(C(=O)Nc2ccccc2Oc2ccc(F)cc2)c(C(F)(F)F)n1 [III-3]
pest or weed control at 200 µg/mL [1]: 0% | pest or weed control at 200 µg/mL [2]: 57% | IC50 [3]: > 100 µM

COc1cc(Oc2ccccc2NC(=O)c2cn(C)nc2C(F)(F)F)cc(OC)c1OC [III-4]
pest or weed control at 200 µg/mL [1]: 0% | pest or weed control at 200 µg/mL [2]: 0% | IC50 [3]: > 100 µM

COc1cc(Oc2ccccc2NC(=O)c2cn(C)nc2C(F)F)cc(OC)c1OC [III-5]
pest or weed control at 200 µg/mL [1]: 0% | pest or weed control at 200 µg/mL [2]: 0% | IC50 [3]: > 100 µM

Cn1cc(C(=O)Nc2ccccc2Oc2ccc(C#N)cc2)c(C(F)(F)F)n1 [III-6]
pest or weed control at 200 µg/mL [1]: 0% | pest or weed control at 200 µg/mL [2]: 30.2% | IC50 ([3]; cells printed as "-" (footnote)): > 100 µM
